Assay results reported in the supplement of paper PMC10307832.

Experiments:
Assay in all cases: relative viability (nuclei count vs DMSO), 5 days (fraction); higher = more cells survive
[1] = test system: HCC-44
Method in brief: (§1)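 Lung cancer cell lines were pin-tool dosed in 1536-well plates on the day after seeding, with either a lone drug or a fixed anchor-drug dose plus five library-drug doses (not always all listed) in √10 steps. Nuclei were counted on 4× images after 5 days. Relative viability is the ratio of treated-well to vehicle-well nuclei counts, with each value a median of duplicate plates.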

[2] = test system: UMC-11
Method in brief: as §1

[3] = test system: COR-L23
Method in brief: as §1

[4] = test system: NCI-H2126
Method in brief: as §1

[5] = test system: NCI-H1651
Method in brief: as §1

[6] = test system: HOP-62
Method in brief: as §1

[7] = test system: PC-14
Method in brief: as §1

[8] = test system: HCC-15
Method in brief: as §1

[9] = test system: NCI-H358
Method in brief: as §1

[10] = test system: LC-2-ad
Method in brief: as §1

[11] = test system: NCI-H650
Method in brief: as §1

[12] = test system: LU99A
Method in brief: as §1

[13] = test system: NCI-H2347
Method in brief: as §1

[14] = test system: NCI-H1355
Method in brief: as §1

[15] = test system: EPLC-272H
Method in brief: as §1

[16] = test system: HARA
Method in brief: as §1

[17] = test system: SW 1573
Method in brief: as §1

[18] = test system: ABC-1
Method in brief: as §1

[19] = test system: NCI-H1993
Method in brief: as §1

[20] = test system: NCI-H2023
Method in brief: as §1

[21] = test system: NCI-H2085
Method in brief: as §1

[22] = test system: NCI-H838
Method in brief: as §1

[23] = test system: NCI-H1915
Method in brief: as §1

O=c1cc(-c2cccc3c2Sc2ccccc2S3)oc(N2CCOCC2)c1 + CS(=O)(=O)N1CCN(Cc2cc3nc(-c4cccc5[nH]ncc45)nc(N4CCOCC4)c3s2)CC1 [Pictilisib] (partner 1 µM)
relative viability ([1]; first compound 0.08 µM): 0.457 | relative viability ([1]; first compound 0.253 µM): 0.655 | relative viability ([1]; first compound 0.8 µM): 0.536 | relative viability ([1]; first compound 2.53 µM): 0.468 | relative viability ([1]; first compound 8 µM): 0.577 | relative viability ([2]; first compound 0.08 µM): 0.815 | relative viability ([2]; first compound 0.253 µM): 1.09 | relative viability ([2]; first compound 0.8 µM): 0.992 | relative viability ([2]; first compound 2.53 µM): 0.752 | relative viability ([2]; first compound 8 µM): 1 | relative viability ([3]; first compound 0.08 µM): 0.92 | relative viability ([3]; first compound 0.253 µM): 1.36 | relative viability ([3]; first compound 0.8 µM): 0.934 | relative viability ([3]; first compound 2.53 µM): 0.705 | relative viability ([3]; first compound 8 µM): 1.06 | relative viability ([4]; first compound 0.08 µM): 0.454 | relative viability ([4]; first compound 0.253 µM): 0.509 | relative viability ([4]; first compound 0.8 µM): 0.412 | relative viability ([4]; first compound 2.53 µM): 0.452 | relative viability ([4]; first compound 8 µM): 0.56 | relative viability ([5]; first compound 0.08 µM): 0.512 | relative viability ([5]; first compound 0.253 µM): 0.857 | relative viability ([5]; first compound 0.8 µM): 0.546 | relative viability ([5]; first compound 2.53 µM): 0.59 | relative viability ([5]; first compound 8 µM): 0.509 | relative viability ([6]; first compound 0.08 µM): 0.782 | relative viability ([6]; first compound 0.253 µM): 1.02 | relative viability ([6]; first compound 0.8 µM): 0.89 | relative viability ([6]; first compound 2.53 µM): 0.831 | relative viability ([6]; first compound 8 µM): 0.779 | relative viability ([7]; first compound 0.08 µM): 0.48 | relative viability ([7]; first compound 0.253 µM): 0.977 | relative viability ([7]; first compound 0.8 µM): 0.755 | relative viability ([7]; first compound 2.53 µM): 0.748 | relative viability ([7]; first compound 8 µM): 0.668 | relative viability ([8]; first compound 0.08 µM): 0.732 | relative viability ([8]; first compound 0.253 µM): 0.858 | relative viability ([8]; first compound 0.8 µM): 0.797 | relative viability ([8]; first compound 2.53 µM): 0.674 | relative viability ([8]; first compound 8 µM): 0.793 | relative viability ([9]; first compound 0.08 µM): 0.311 | relative viability ([9]; first compound 0.253 µM): 0.328 | relative viability ([9]; first compound 0.8 µM): 0.351 | relative viability ([9]; first compound 2.53 µM): 0.269 | relative viability ([9]; first compound 8 µM): 0.33 | relative viability ([10]; first compound 0.08 µM): 0.472 | relative viability ([10]; first compound 0.253 µM): 0.545 | relative viability ([10]; first compound 0.8 µM): 0.465 | relative viability ([10]; first compound 2.53 µM): 0.432 | relative viability ([10]; first compound 8 µM): 0.425 | relative viability ([11]; first compound 0.08 µM): 0.807 | relative viability ([11]; first compound 0.253 µM): 0.873 | relative viability ([11]; first compound 0.8 µM): 0.741 | relative viability ([11]; first compound 2.53 µM): 0.806 | relative viability ([11]; first compound 8 µM): 0.767 | relative viability ([12]; first compound 0.08 µM): 0.294 | relative viability ([12]; first compound 0.253 µM): 0.341 | relative viability ([12]; first compound 0.8 µM): 0.378 | relative viability ([12]; first compound 2.53 µM): 0.332 | relative viability ([12]; first compound 8 µM): 0.418 | relative viability ([13]; first compound 0.08 µM): 0.633 | relative viability ([13]; first compound 0.253 µM): 0.952 | relative viability ([13]; first compound 0.8 µM): 0.567 | relative viability ([13]; first compound 2.53 µM): 0.733 | relative viability ([13]; first compound 8 µM): 0.476 | relative viability ([14]; first compound 0.08 µM): 0.457 | relative viability ([14]; first compound 0.253 µM): 0.456 | relative viability ([14]; first compound 0.8 µM): 0.362 | relative viability ([14]; first compound 2.53 µM): 0.405 | relative viability ([14]; first compound 8 µM): 0.344 | relative viability ([15]; first compound 0.08 µM): 0.321 | relative viability ([15]; first compound 0.253 µM): 0.334 | relative viability ([15]; first compound 0.8 µM): 0.29 | relative viability ([15]; first compound 2.53 µM): 0.289 | relative viability ([15]; first compound 8 µM): 0.327 | relative viability ([16]; first compound 0.08 µM): 0.368 | relative viability ([16]; first compound 0.253 µM): 0.378 | relative viability ([16]; first compound 0.8 µM): 0.419 | relative viability ([16]; first compound 2.53 µM): 0.384 | relative viability ([16]; first compound 8 µM): 0.627 | relative viability ([17]; first compound 0.08 µM): 0.539 | relative viability ([17]; first compound 0.253 µM): 0.554 | relative viability ([17]; first compound 0.8 µM): 0.586 | relative viability ([17]; first compound 2.53 µM): 0.556 | relative viability ([17]; first compound 8 µM): 0.597 | relative viability ([18]; first compound 0.08 µM): 0.62 | relative viability ([18]; first compound 0.253 µM): 0.739 | relative viability ([18]; first compound 0.8 µM): 0.607 | relative viability ([18]; first compound 2.53 µM): 0.666 | relative viability ([18]; first compound 8 µM): 0.71 | relative viability ([19]; first compound 0.08 µM): 0.942 | relative viability ([19]; first compound 0.253 µM): 0.759 | relative viability ([19]; first compound 0.8 µM): 0.894 | relative viability ([19]; first compound 2.53 µM): 0.846 | relative viability ([19]; first compound 8 µM): 0.805 | relative viability ([20]; first compound 0.08 µM): 0.213 | relative viability ([20]; first compound 0.253 µM): 0.294 | relative viability ([20]; first compound 0.8 µM): 0.244 | relative viability ([20]; first compound 2.53 µM): 0.218 | relative viability ([20]; first compound 8 µM): 0.218 | relative viability ([21]; first compound 0.08 µM): 0.44 | relative viability ([21]; first compound 0.253 µM): 0.586 | relative viability ([21]; first compound 0.8 µM): 0.476 | relative viability ([21]; first compound 2.53 µM): 0.464 | relative viability ([21]; first compound 8 µM): 0.494 | relative viability ([22]; first compound 0.08 µM): 0.415 | relative viability ([22]; first compound 0.253 µM): 0.643 | relative viability ([22]; first compound 0.8 µM): 0.372 | relative viability ([22]; first compound 2.53 µM): 0.426 | relative viability ([22]; first compound 8 µM): 0.408 | relative viability ([23]; first compound 0.08 µM): 0.821 | relative viability ([23]; first compound 0.253 µM): 1.01 | relative viability ([23]; first compound 0.8 µM): 0.904 | relative viability ([23]; first compound 2.53 µM): 0.828 | relative viability ([23]; first compound 8 µM): 0.976
